Assay results from US20250064775A1, “SELECTIVE ELIMINATION OF SENESCENT CELLS BY FERROPTOSIS INDUCTION” (Trustees of Tufts College, priority 2022, published 2025).

Experiments:
[1] = system: IR-induced senescent [SEN(IR)] cells; assay: Rescue of RSL3-induced ferroptosis in IR-induced senescent cells (CCK8 survival); type: cell-based
Description: Non-senescent (NS: mock irradiated) or IR-induced senescent [SEN(IR)] cells were treated 10 days after irradiation with […] RSL3 and the indicated ferroptosis antagonist, followed by cell survival measurement by CCK8 assay. A. Cells were treated with ferrostatin-1 (FSN1—1 μM) at the same time as RSL3. B. Cells were given the ALOX5 and ALOX15 inhibitor zileuton (Zil—50 μM) at the same time as RSL3. C. Cells were given iron chelators deferoxamine (DFX—25 μM) or salicylaldehyde isonicotinoyl hydrazine (SIH—100 μM) at the same time as RSL3. D. Cells were given ACSL4 inhibitors rosiglitazone (ROSI—100 μM) or PRGL493 (PRGL—100 μM) for 72 h prior to RSL3. ***=p<0.001
The inventor next sought to further elucidate the potential mechanisms for induction of ferroptosis in senescent cells by the disclosed senolytic drugs. The inventor rescued ferroptosis in senescent cells induced by contacting the cells with RSL3 and ferrostatin-1 (FSN1), which inhibits lipid peroxidation (FIG. 6A), zileuton (5- and 15-lipoxygenase inhibitor), which protects cells from lipoxygenase-induced membrane peroxidation (FIG. 6B), iron chelators deferoxamine or salicylaldehyde isonicotinoyl hydrazine (FIG. 6C), and ACSL4 inhibitors rosiglitazone or PRGL493 (FIG. 6D).

[2] = system: senescent cells induced with 10 Gy of IR; assay: Cell survival (CCK8) of IR-induced senescent cells vs non-senescent controls; type: cell-based
Description: (§1) A. RNA levels of GPX4 in cells induced to senesce by ionizing radiation (IR), mitochondrial dysfunction (MiDAS), or lentiviral overexpression of […] [SEN(RAS)]. Non-senescent cells induced by either mock treatment (NS) or empty lentiviral vector (Vector) served as controls. RNA levels measure by quantitative RT-PCR and normalized to actin. B—C. Cells were induced to senesce by 24 h of treatment with 250 nM doxorubicin [SEN(DOXO)] or control [NS (DMSO)], and 10 days later were given the indicated drug doses for 24 h. D. Cells were induced to senesce with 10 Gy of IR and 10 days later given the indicated drug doses for 24 h. E-F. Cells were induced to senesce with 10 Gy of IR and 10 days later given the indicated drug doses for 72 h. Cell survival was then measured by colorimetric assay (CCK8). *=p<0.01
Preliminary data: Senescent cells appear primed to undergo ferroptosis. Not only do they elevate ALOX enzymes (FIG. 1A) and PUFA levels (FIG. 1B), but the lipid hydroxide products of these enzymes are elevated (FIG. 1C), as are byproducts of lipid peroxidation, (e.g. 4-HNE and 4-HDDE (FIG. 1D)). Lipid peroxidation-sensitive probes, e.g., C11-BODIPY, indicate increased lipid peroxidation during senescence. Furthermore, senescent cells accumulate iron in their cytosol. […]

[3] = system: PTGES, ALOX5, LTC4S, LTA4H and ALOX5AP mRNA in liver; assay: Liver oxylipin synthase mRNAs by qPCR in chemotherapy-induced senescence model; type: in vivo, p16-3MR mice; settings: FIG. 3B
Description: A. IMR-90 cells were proliferative in 10% serum, made quiescent by incubation for 3 days in 0.2% serum, or made senescent by treatment with 10 Gy X-rays (IR) or ethidium bromide to induce mitochondrial-dysfunction induced senescence (MiDAS). Lipids were extracted from proliferating (PRO—10%), quiescent (QUI—0.2%), IR-induced senescent (SEN(IR)—10% or 0.2% serum), or mitochondrial dysfunction-associated senescent (MiDAS-0.2%) cells and analyzed by liquid chromatography combined with mass spectrometry (LC-MS). Putative oxylipins (A) were detected in control and senescent cells. B. p16-3MR mice were given a single dose (10 mg/kg) of doxorubicin (DOXO) or phosphate-buffered saline (PBS) by intraperitoneal (i.p.) injection. After 5 days, mice were given GCV (25 mg/kg) or vehicle by i.p. injection for 5 consecutive days. Livers were harvested on day 10 and analyzed for oxylipin synthase mRNAs by qPCR. Heat maps indicate averages of at least 5 mice (*=p<0.05, 1-way ANOVA). C. C57BL/6 mice were aged for 6 (young) or 24 (old) months. Kidneys were harvested from mice and analyzed for oxylipin synthase RNA levels by qPCR.
Briefly, mice were treated with either control (phosphate buffered saline, (PBS)), doxorubicin (DOXO), or the combination of DOXO and ganciclovir (GCV). GCV is known to eliminate senescent cells in the liver at the concentrations administered, i.e., 25 mg/kg.

[4] = system: senescent cells [SEN(DOXO)]; assay: Cell survival (CCK8) of doxorubicin-induced senescent cells vs non-senescent controls; type: cell-based; settings: SEN(DOXO) (250 nM doxorubicin 24 h) vs NS (DMSO); drug given 10 days later for 24 h; FIG. 5B-C
Description: as §1, with “*=p<0.01 Preliminary data: Senescent cells appear primed to undergo ferroptosis. Not only do they elevate ALOX enzymes (FIG. 1A) and PUFA levels (FIG. 1B), but the lipid hydroxide products of these enzymes are elevated (FIG. 1C), as are byproducts of lipid peroxidation, (e.g. 4-HNE and 4-HDDE (FIG. 1D)). Lipid peroxidation-sensitive probes, e.g., C11-BODIPY, indicate increased lipid peroxidation during senescence. Furthermore, senescent cells accumulate iron in their cytosol. […]” for “*=p<0.01”

senescent cells = assay: Ferroptosis induction in senescent relative to non-senescent cells (general statement); type: cell-based; settings: general statement in description
Description: While many of these oxylipins can drive pathology, such as in the case of pulmonary fibrosis, this may also result in a vulnerability that allows them to be targeted for elimination. Among the oxylipin synthesis enzymes elevated during senescence are arachidonate 5-, 12-, 15-, and 15B-lipoxygenases (ALOX5, 12, 15, and 15B), as well as ALOX5 activating protein (ALOX5AP). These lipoxygenases produce oxylipins, such as the leukotrienes, by acting on free arachidonic acid inside of the cell. However, these enzymes may also peroxidize arachidonic acid that is bound (esterified) in the plasma membrane. Lipid peroxides then react with labile iron in the cytosol via Fenton reaction to result in an exponential chain reaction of lipid peroxidation, ultimately resulting in a form of cell death known as “ferroptosis”. […] Other compounds, such as artemisinin and its derivatives interact with labile iron to increase lipid peroxidation. Since senescent cells also show elevated levels of labile iron, in addition to lipoxygenases, these cells are especially sensitive to induction of ferroptosis. […] As used herein, “senolytic” refers to the property of a molecule, compound, or composition to selectively kill senescent cells. Thus, ML-210, RSL3, FIN56, erastin, artemisinin, and related molecules are useful for the treatment of chronic degenerative diseases that are characterized by cellular senescence.

[5] = given at the same time as 0.1 mM RSL3, FSN1 1 μM, Zil 50 μM, DFX 25 μM, SIH 100 μM, FIG. 6A-C

CC(=O)NC1=NC(c2cn(-c3ccccc3)nc2-c2ccc(C)o2)n2c(nc3ccccc32)N1 (stereo not drawn) [PRGL493] was tested, and the “rescue of RSL3-induced ferroptosis in senescent cells (cell survival, CCK8)” value (“rescue of RSL3-induced ferroptosis” below) ([1]; given for 72 h prior to 0.1 mM RSL3, ROSI 100 μM, PRGL 100 μM, FIG. 6D) was “rescued induction of ferroptosis in senescent cells”.

For C[C@@H]1CC[C@H]2[C@@H](C)C(=O)O[C@@H]3O[C@@]4(C)CC[C@@H]1[C@]32OO4 [artemisinin], the “cell death in senescent cells vs control cells (cell survival, CCK8)” value ([2]; 10 Gy IR, drug given 10 days later for 72 h, several concentrations, FIG. 5E-5F) was “induced significantly more cell death in senescent cells than control cells”.

In the case of COc1cccc2c1C(=O)c1c(O)c3c(c(O)c1C2=O)C[C@@](O)(C(=O)CO)C[C@@H]3O[C@H]1C[C@H](N)[C@H](O)[C@H](C)O1 [DOXO, doxorubicin], the “liver mRNA levels of PTGES, ALOX5, LTC4S, LTA4H and ALOX5AP” value ([3]; single dose 10 mg/kg i.p. vs PBS, livers harvested day 10) is reported as “DOXO-dependent increase in the mRNA levels”.

For salicylaldehyde isonicotinoyl hydrazine, the “rescue of RSL3-induced ferroptosis” value [1, 5] was “rescued induction of ferroptosis in senescent cells”.

COC(=O)c1ccc([C@H]2c3[nH]c4ccccc4c3CC(C(=O)OC)N2C(=O)CCl)cc1 (stereo partly drawn) [RSL3] was tested, and the “selective killing of senescent cells (cell survival, CCK8)” value [4] was “selectively killed senescent cells” and the “selective induction of ferroptosis in senescent cells relative to non-senescent cells” value (senescent cells) was “selectively induces ferroptosis in senescent cells relative to non-senescent cells”.

CCOC(=O)c1ccc(NC2CCCCC2)c(N)c1 [ferrostatin-1] was tested, and the “rescue of RSL3-induced ferroptosis” value [1, 5] was “rescued induction of ferroptosis in senescent cells”.

With CC(c1cc2ccccc2s1)N(O)C(N)=O (stereo not drawn) [zileuton] the “rescue of RSL3-induced ferroptosis” value [1, 5] was “rescued induction of ferroptosis in senescent cells”.

Cc1onc(C(=O)N2CCN(C(c3ccc(Cl)cc3)c3ccc(Cl)cc3)CC2)c1[N+](=O)[O-] [ML-210] was tested, and the “selective induction of ferroptosis in senescent cells (cell survival, CCK8)” value ([2]; 10 Gy IR senescent vs non-senescent (NS) cells, drug given 10 days later for 24 h, FIG. 5D) was “selectively induced ferroptosis in senescent cells and not control non-senescent (NS) cells” and the “selective induction of ferroptosis in senescent cells relative to non-senescent cells” value (senescent cells) was “selectively induces ferroptosis in senescent cells relative to non-senescent cells”.

In the case of O=S(=O)(NC1CCCCC1)c1ccc2c(c1)C(=NO)c1cc(S(=O)(=O)NC3CCCCC3)ccc1-2 [FIN56], the “selective induction of ferroptosis in senescent cells relative to non-senescent cells” value (senescent cells) is reported as “selectively induces ferroptosis in senescent cells relative to non-senescent cells”.

With Nc1nc(O)c2ncn(COC(CO)CO)c2n1 [GCV, ganciclovir] the “effect on DOXO-dependent increase of liver mRNA levels of PTGES, ALOX5, LTC4S, LTA4H and ALOX5AP” value ([3]; 25 mg/kg i.p. for 5 consecutive days, 5 days after DOXO) was “abrogates the DOXO-dependent increase in the mRNA levels”.
